The values that follow come from patent publication US3959359A, “Phenoxyalkylamines, process for their preparation and therapeutical composition containing same” (priority 1968, dated 1976).

For one series, the system named is duodenum of rats. Kind of series: Beta-stimulant action, inhibition of acetylcholine-induced contraction of isolated duodenum. Further details: species or system rat (Sprague Dawley). As to conditions: 0.1 γ/ml of bath; for % Inhibition of cholinergic contraction (beta-stimulant action): acetylcholine 0.1 γ/ml; for beta-stimulant action: in words. As for the experimental part: A comparison was made of the beta-stimulant action of the same compounds as used in the above experiment.
The duodenum of rats (Sprague Dawley strain) weighing about 150 g is taken immediately post-mortem. The test organ is immediately placed in a suitable cell for the isolated organ (oxygenated Tyrode's solution maintained at a temperature of 37°C).
Addition of acetylcholine (0.1 γ/ml) to the bath induces a contraction of the organ which is immediately transmitted via a strain gauge to a potentiometric recording device.
Addition of a beta-stimulant material causes inhibition of this […].
A comparison was made between the actions of various materials on cholinergic contractions.

Series [1] concerns rat uterus (uterine cornuae). Put plainly: Uterine relaxant activity, inhibition of spontaneous contractions of the isolated uterus (De Jalon method). Further details: species or system rat (Sprague Dawley). As to conditions: 0.5 γ/ml of bath; for uterine relaxant effect: in words. As for the experimental part:
The study was conducted on rat uterus, using the following compounds:
The conventional method of De Jalon, Bayo and De Jalon (1945). Farmacoter. act. 3, 313 -- also reported in the book : "Pharmacological Experiments on Isolated Preparations" by the staff of the Department of Pharmacology, University of Edinburgh, published by E. & S. Livingstone Ltd, London -- was used, the pharmacological investigation being conducted on the uterine cornuae of female rats (Sprague Dawley strain) kept alive in a survival liquid.
A tank containing Tyrode's solution is maintained at a constant temperature of 32°C. The test organ is suspended to a strain gauge for the purpose of recording the contractions on a potentiometric recorder. The uterine cornuae are taken from non-gravid puberal female rats having an average weight of 160 g.
The day prior to the test, the animals are administered a di-ethyl-stilboestrol injection. Postmortem, the cornuae are isolated as rapidly as possible and a 15 mm fragment from which the connective tissue has been removed is placed in the experimental cell.
During oestrum, regular spontaneous contractions (FIG. 1) are noted; such oscillations are stable within 30-60 minutes, after washing several times with suitably oxygenated Tyrode's solution.
Addition to the bath of uterine relaxant material produces, at a low dosage, a total inhibition of such spontaneous contractions.

Series [2] concerns isolated heart (coronary rate of flow). Kind of series: Coronary dilator activity, Langendorff's method on the isolated heart. Details: species or system rabbit (Fauve de Bourgogne); ED 50: unit not given beside the values. The note with it: for activation at 0.01 mg: 10 γ injected; for activation at 0.025 mg: 25 γ injected; for activation at 0.05 mg: 50 γ injected; for ED 50: 50% increase of original coronary rate of flow; for activation at 0.005 mg: 5 γ injected; for activation at 0.02 mg: 20 γ injected; for activation at 0.04 mg: 40 γ injected; for activation at 0.08 mg: 80 γ injected; for activation at 0.16 mg: 160 γ injected. As for the experimental part: The coronary dilator activity was studied according to Langendorff's method on the isolated heart.
The tests were carried out on the hearts of young Fauve de Bourgogne (about 1.5 kg) rabbits. The hearts were rapidly taken out and maintained in surviving condition by perfusion of a physiological (Tyrode type) liquid heated at 37°C and oxygenated under a constant pressure of 50-60 cm of water. The heart was perfused countercurrently.
Volumetric determinations of the coronary rate of flow were then recorded at thirty second intervals.
After stabilization of the basic rate of flow, the test compound, dissolved in physiological saline solution, was injected in the perfusion liquid, in a volume of from 0.05 to 0.2 ml.
In the same heart, increasing dosages of all three compounds were tested by injecting alternatively a predetermined dose for each one of the three compounds.
Each injection was made 4-5 minutes after a stable rate of flow was attained.
The tests were carried out as above with three rabbits.

The conditions of series [3]: compared to Isoxsuprine; cited from earlier work.
For the next series, the system named is uterus. As to conditions: in words; cited from earlier work.
The test system of another series is beta receptor. As to conditions: International Conference on Duvadilan, May 1962; cited from earlier work.
The conditions of series [4]: cited from earlier work.
For the next series, the system named is patients. Kind of series: Clinical experiments in patients with anginose states or ischemic diseases of the heart. Format: in vivo, human. As for the experimental part: The compound prepared in example 4 (1-(1-hydroxypropyl)-4-[2-(1-methyl-phenethylamino)-ethoxy]-benzene hydrochloride) was experimented in four different Cardiology Services. 211 patients were treated with this compound. These patients suffered from different anginose states or from ichemic diseases of the heart (coronary failures or after-effects of infarct). […] Therefore the tolerance is excellent.

Where [5] appears, read: Oryctolagus cuniculus, Table I, heart A, read-out: increase of coronary rate of flow.
Setting [6] is: Oryctolagus cuniculus, Table I, heart B, read-out: increase of coronary rate of flow.
Where [7] appears, read: Oryctolagus cuniculus, Table II, heart No. 1, read-out: increase of coronary rate of flow.
The mark [8] stands for this setting: Oryctolagus cuniculus, Table II, heart No. 2, read-out: increase of coronary rate of flow.
[9] abbreviates: Oryctolagus cuniculus, Table II, heart No. 3, read-out: increase of coronary rate of flow.

Read-outs that look alike come from different tables or passages of the source.

With `CC(COc1ccccc1)NC(C)C(O)c1ccccc1` (centres unmarked) [Compound D, reference compound], in the series on duodenum of rats, the “% Inhibition of cholinergic contraction (beta-stimulant action)” value (“% Inhibition of cholinergic contraction” below) is on record as 100% and the beta-stimulant action result was “highly beta-stimulant action”. Also, in series [1], the “% Inhibition of spontaneous uterine contractions” value worked out at 70% and the uterine relaxant effect entry is given as “reduced uterine relaxant effect”.
Turning to `CCCC(=O)c1ccc(OCCNC(C)Cc2ccccc2)cc1` (centres unmarked) [Example 5, 4-[2-(1-methyl-phenethylamino)-ethoxy]-butyrophenone], the activation at 0.01 mg came out at 21% in series [2] (setting [5]) and 16% in series [2] (setting [6]). The activation at 0.025 mg amounted to 57% in series [2] (setting [5]) and 39% in series [2] (setting [6]). The activation at 0.05 mg came out at 64% in series [2] (setting [5]) and 50% in series [2] (setting [6]). Besides, the “ED 50” value in series [2] (Table I, heart A) is on record as 24 γ; in series [2] (Table I, heart B), 45 γ.
With `CCC(=O)c1ccc(OCCNC(C)Cc2ccccc2)cc1` (centres unmarked) [Example 1, 4-[2-(1-methyl-phenethylamino)-ethoxy]-propiophenone], in the series on duodenum of rats, the “% Inhibition of cholinergic contraction” value stood at 15% and the beta-stimulant action entry is given as “only a slight beta-stimulant effect”. In addition, in series [2] (setting [5]), the activation at 0.005 mg is 12%, the activation at 0.01 mg is 34%, the activation at 0.02 mg was found to be 47% and the activation at 0.04 mg was determined as 50%. In addition, the activation at 0.08 mg in series [2] (setting [5]) is 80.5%. Also, in series [2] (setting [6]), the activation at 0.01 mg amounted to 8%, the activation at 0.02 mg is 37%, the activation at 0.04 mg was determined as 50% and the activation at 0.08 mg came out at 62%. In addition, the “ED 50” value in series [2] (Table I, heart A) is recorded as 27 γ. Further, the “ED 50” value in series [2] (Table I, heart B) was 44 γ. Moreover, in series [1], the “% Inhibition of spontaneous uterine contractions” value is given as 0% and the uterine relaxant effect result is “absolutely no uterine relaxant effect”.
Consider `CC(COc1ccccc1)NC(C)Cc1ccccc1` (centres unmarked) [N-(2-phenyl-1-methyl-ethyl)-2-phenoxy-1-methyl-ethylamine], for which the vasodilator activity entry in series [3] is “reduced vasodilator activity compared to Isoxsuprine”. Also, the uterus relaxant activity result in the series with uterus is recorded as “uterus relaxants”.
For `CC(COc1ccccc1)NC(C)C(O)c1ccc(O)cc1` (centres unmarked) [Isoxsuprine, 1-(p-hydroxyphenyl)-2-(1-methyl-2 phenoxyethylamino) propanol-1, reference compound], in the series with duodenum of rats, the “% Inhibition of cholinergic contraction” value is recorded as 100% and the beta-stimulant action result is on record as “highly beta-stimulant action”. In addition, in series [2] (setting [7]), the activation at 0.04 mg was 8%, the activation at 0.08 mg is 20% and the activation at 0.16 mg came out at 50%. In series [2] (setting [8]), the activation at 0.02 mg came out at 17%, the activation at 0.04 mg was 43% and the activation at 0.08 mg stood at 60%. In series [2] (setting [9]), the activation at 0.04 mg was found to be 0%, the activation at 0.08 mg stood at 17% and the activation at 0.16 mg was determined as 33%. Moreover, in series [2] (Oryctolagus cuniculus, Table II, heart No. 3, 320 γ injected, read-out: increase of coronary rate of flow), the activation at 0.32 mg stood at 50%. Also, the activation at 0.64 mg in series [2] (Oryctolagus cuniculus, Table II, heart No. 3, 640 γ injected, read-out: increase of coronary rate of flow) amounted to 75%. Moreover, in series [1], the “% Inhibition of spontaneous uterine contractions” value is 100% and the uterine relaxant effect entry is on record as “total uterine relaxant action”. Besides, the “mechanism of uterine relaxant activity” value in the series on beta receptor is on record as “essentially due to beta receptor activation”. For the same compound, the ventricular stimulability entry in series [4] (in view of beta-stimulant properties) was “increases ventricular stimulability”. For the same compound, the “possible occurrence of extrasystoles” value in series [4] (particularly ventricular extrasystoles) is given as “increases also the possible occurrence of extrasystoles”.
`CCC(O)c1ccc(OCCNC(C)Cc2ccccc2)cc1` (centres unmarked) [Example 4, 1-(1-hydroxy-propyl)-4[2-(1-methyl-phenethylamino)-ethoxy]-benzene]: in the series on duodenum of rats, the “% Inhibition of cholinergic contraction” value amounted to 15% and the beta-stimulant action entry is “only a slight beta-stimulant effect”. Moreover, the activation at 0.002 mg in series [2] (Oryctolagus cuniculus, Table I, heart A, 2 γ injected, read-out: increase of coronary rate of flow) amounted to 10%. Besides, in series [2] (setting [5]), the activation at 0.005 mg came out at 30%, the activation at 0.01 mg was found to be 33%, the activation at 0.02 mg was 67% and the activation at 0.04 mg is 93%. For the same compound, in series [2] (setting [6]), the activation at 0.01 mg stood at 11%, the activation at 0.02 mg is 30%, the activation at 0.04 mg was 55% and the activation at 0.08 mg was 78%. In series [2] (setting [7]), the activation at 0.04 mg is 33%, the activation at 0.08 mg was found to be 54% and the activation at 0.16 mg was determined as 78%. In addition, in series [2] (setting [8]), the activation at 0.01 mg stood at 33%, the activation at 0.02 mg is 50% and the activation at 0.04 mg was 80%. Moreover, in series [2] (setting [9]), the activation at 0.02 mg amounted to 17%, the activation at 0.04 mg is 46%, the activation at 0.08 mg is 50% and the activation at 0.16 mg stood at 75%. Further, the “ED 50” value in series [2] (Table I, heart A) is listed as 11 γ. The “ED 50” value in series [2] (Table I, heart B) is recorded as 35 γ. Also, in series [1], the “% Inhibition of spontaneous uterine contractions” value stood at 0% and the uterine relaxant effect result is “absolutely no uterine relaxant effect”. For the same compound, in the series on patients (211 patients), the contra-indication entry was “no contra-indication”; the “modification of cardiac frequency and arterial pressure” value was “no modification of the cardiac frequency and of the arterial pressure”; the tolerance entry was “excellent”. Besides, in the series on patients (211 patients treated), the “favourable results (number of patients)” value amounted to 172 patients and the “favourable results (share of patients)” value is listed as 81.5%.
